# From patent publication US20250170114A1, “METHODS OF TREATMENT USING T-TYPE CALCIUM CHANNEL MODULATORS” (Praxis Precision Medicines, Inc., priority 2022, published 2025)
# Tests used:
# [1] = test system: harmaline-induced decrease in travelling distance in male SD rats; experiment: Open field test with harmaline in SD rats; format: in vivo, rat; settings: harmaline 30 mg/kg, dose of 3 and 10 mg/kg
# Protocol: Each of six groups of male SD rats were subjected to a tremor assessment, followed by three ADL-like measures including open field test, rotarod test, and wire grip test after receiving doses of either vehicle, Formula (I), or propranolol, followed by either saline or harmaline, as outlined below in Table 22 below.
# Fifteen minutes after the tremor assessment, the rats were subjected to an open field test. FIG. 8 is a bar graph showing the traveling distance in 0-5 minutes (mm) measured in rats that were administered 30 mg/kg harmaline and also administered 10 mg/kg propranolol or 1 mg/kg, 3 mg/kg or 10 mg/kg study drug.
# [2] = test system: upper limb tremor in participants with ET; experiment: Phase 2 trial in essential tremor (Part A, Part B OLT, Part B RWD): TETRAS performance subscale, ADL and mADL scores; format: in vivo, human; design: key to TETRAS ADL Randomization Baseline Mean: TETRAS ADL: 12 items each rated 0 to 4
# Text: In some embodiments, the compound of Formula (I) or a pharmaceutically acceptable salt thereof (e.g., the HCl salt), when administered in combination with at least one of propranolol, primidone, topiramate, or a pharmaceutically acceptable salt thereof can reduce tremor severity by at least about 20% when measured by The Essential Tremor Rating Assessment Scale (TETRAS). The term “TETRAS” as used herein refers to a scale developed to quantify severity of ET and its impact on daily activities. It has an activities of daily living (ADL) section and a performance section. The ADL section has 12 items rated between 0 to 4, and the performance section has 9 items rated between 0 to 4. See, e.g., Elble, R. R., The Essential Tremor Rating Assessment Scale, J. Neurology Neuromed. 2016, 1(4):34-38. This multi-center clinical trial assessed the efficacy, safety, tolerability, and PK of the HCl salt compound of Formula (I) in participants aged 18 years of age or older who have had signs and symptoms consistent with ET for at least 3 years, with an onset before age 65. The clinical trial was conducted in 2 parts (Part A and Part B). Both parts consisted of 3 periods: Screening/Baseline, Intervention, and Safety Follow-up Periods. Part A of the clinical trial was open-label and assessed the safety and tolerability of the study drug, as well as the overall magnitude and pattern of change in ET severity. Daily dose levels of the HCl salt compound of Formula (I) were titrated from 20 mg (Day 1 to Day 7) to 40 mg (Days 8 to 14). Part B of the clinical trial consisted of both an open-label titration phase and a randomized, double-blind, placebo-controlled withdrawal phase. Part B assessed the safety and tolerability of the study drug, as well as the overall magnitude and pattern of change in ET severity and the duration of that effect. During the open-label titration phase, the daily dose levels of the HCl salt compound of Formula (I) were titrated from 20 mg (Days 1 to 3) to 40 mg (Days 4 to 7) to 60 mg (Days 8 to 14) to 80 mg (Days 15 to 21) to 100 mg (Days 22 to 28) to 120 mg (Days 29 to 42) or the highest tolerated dose. In the randomized, double-blind, placebo-controlled withdrawal phase, participants were either maintained on their final open-label dose or switched to placebo for an additional 14 days (Days 43 to 56). Part A. On Day 1, participants received a 20 mg dose of study drug, administered in the morning. Participants remained in a clinical setting under medical observation for approximately 6 hours. TETRAS Performance assessments were performed before dosing and 6 hours post-dose. After the first dose, participants continued QAM dosing at home after breakfast through Day 7. Participants returned to the clinic on Day 7 for efficacy testing at the 20 mg dose level. On Day 8, the dose increased to 40 mg QAM after breakfast through Day 14. Participants returned to the clinic on Day 14 for efficacy testing at the 40 mg dose level. Participants who agreed to optional additional PK sampling remained overnight in the clinic on Day 1, Day 7, and Day 14. Key safety measures included clinical laboratory evaluations, 12-lead ECG, C-SSRS, and vital signs. Key efficacy assessments included the TETRAS Performance subscale, TETRAS Upper Limb using accelerometry, CGI, and PGI-C. Blood samples were obtained for the determination of study drug plasma concentrations using a validated bioanalytical method and may also be used for method development and/or metabolite characterization. On Day 1, participants received a 20 mg dose of study drug on an empty stomach (at least 1 hour before breakfast). Participants remained in a clinical setting under medical observation for approximately 6 hours. TETRAS Performance assessments were performed before dosing and 6 hours (±2) post-dose. For dosing on Day 2 through Day 41, participants were instructed to dose QAM at least 1 hour before breakfast at home. Participants continued taking study drug 20 mg QAM at home through Day 3. […]
# [3] = Part B OLT, Day 7, N = 10, change from pre-dose baseline
# [4] = Part B OLT, Day 21, N = 12, change from pre-dose baseline
# [5] = Part B OLT, Day 42, 6 hours post-dose, N = 11, change from pre-dose baseline
# [6] = Part B RWD, Day 56, study drug group N = 6, change from randomization baseline, last line of the cell group
# [7] = Part B RWD, study drug group N = 6, Day 42 post-dose value
structure (smiles),measurement,setting,value
CC(C)(C)NC(=O)CN1CCC(CNC(=O)c2cc(F)cc(Cl)c2)CC1.Cl [Study drug],travelling distance in 0-5 minutes in open field vs vehicle and harmaline only,[1]; listed as Formula (I),significantly attenuated
same,travelling distance in 0-5 minutes in open field vs vehicle and harmaline only,[1]; listed as compound of Formula (I),significantly attenuated decrease
same,"response (e.g., reduced tremor symptoms) of ET patients","[2]; ET patients who were taking propranolol hydrochloride, phase 2 clinical trial",responded favorably
same,all TETRAS performance subscale-derived scores after washout,"[2]; Part A, Day 21, after a 1-week washout period",returned to near pre-dose baseline levels
same,mADL (TETRAS modified total score) CTA LS Mean %,[2]; [3],−18.49%
same,mADL (TETRAS modified total score) Score CFB LS Mean,[2]; [3],−2.862
same,TETRAS CULS Score CFB LS Mean,[2]; [4],1.320
same,mADL (TETRAS modified total score) CTA LS Mean %,[2]; [4],−14.31%
same,mADL (TETRAS modified total score) Score CFB LS Mean,[2]; [4],−2.812
same,mADL (TETRAS modified total score) CTA LS Mean %,[2]; [5],−42.04%
same,mADL (TETRAS modified total score) Score CFB LS Mean,[2]; [5],−6.669
same,TETRAS ADL LS Mean Difference: Study drug - Placebo (95% CI),"[2]; Part B RWD, Day 56","−9.578 (−18.9020, −0.2546)"
same,TETRAS CULS LS Mean Difference: Study drug - Placebo (95% CI),"[2]; Part B RWD, Day 56","−1.896 (−8.7365, 4.9451)"
same,TETRAS PSTS LS Mean Difference: Study drug - Placebo (95% CI),"[2]; Part B RWD, Day 56","−3.025 (−11.2090, 5.1595)"
same,TETRAS ULS LS Mean Difference: Study drug - Placebo (95% CI),"[2]; Part B RWD, Day 56","−0.253 (−4.9188, 4.4129)"
same,mADL LS Mean Difference: Study drug - Placebo (95% CI),"[2]; Part B RWD, Day 56","−8.439 (−15.3856, −1.4916)"
same,mADL (TETRAS modified total score) LS Mean CFB,"[2]; Part B RWD, Day 56, study drug group N = 6, change from randomization baseline",1.350
same,TETRAS ADL Mean CFB,[2]; [6],5.84
same,mADL (TETRAS modified total score) Mean CFB,[2]; [6],8.45
same,mADL LS Mean Difference: Study drug - Placebo (95% CI),"[2]; Part B RWD, Day 56, listed as study drug",−8.439
same,TETRAS ADL LS Mean Difference: Study drug - Placebo (95% CI),"[2]; Part B RWD, Day 70","−5.988 (−16.8132, 4.8377)"
same,TETRAS CULS LS Mean Difference: Study drug - Placebo (95% CI),"[2]; Part B RWD, Day 70","−0.964 (−6.5938, 4.6660)"
same,TETRAS PSTS LS Mean Difference: Study drug - Placebo (95% CI),"[2]; Part B RWD, Day 70","−1.277 (−7.5286, 4.9741)"
same,TETRAS ULS LS Mean Difference: Study drug - Placebo (95% CI),"[2]; Part B RWD, Day 70","−0.316 (−3.3765, 2.7441)"
same,mADL LS Mean Difference: Study drug - Placebo (95% CI),"[2]; Part B RWD, Day 70","−3.236 (−12.3264, 5.8538)"
same,mADL (TETRAS modified total score) LS Mean CFB,"[2]; Part B RWD, Day 70 (follow-up), study drug group N = 6, change from randomization baseline",4.353
same,TETRAS ADL Mean CFB,"[2]; Part B RWD, Day 70 (follow-up), study drug group N = 6, change from randomization baseline, last line of the cell group",18.73
same,TETRAS ADL Randomization Baseline Mean,[2]; [7],22.17
same,TETRAS CULS Randomization Baseline Mean,[2]; [7],19.33
same,TETRAS PS Item 6: Archimedes Spiral (Left) Randomization Baseline Mean (SD),[2]; [7],1.75 (0.524)
same,TETRAS PS Item 6: Archimedes Spiral (Right) Randomization Baseline Mean (SD),[2]; [7],1.75 (0.247)
same,TETRAS PS Item 7: Handwriting Randomization Baseline Mean (SD),[2]; [7],1.75 (1.405)
same,TETRAS PSTS Randomization Baseline Mean,[2]; [7],22.83
same,TETRAS ULS Randomization Baseline Mean,[2]; [7],10.25
same,mADL (TETRAS modified total score) Randomization Baseline Mean,[2]; [7],12.17
same,"all TETRAS performance subscale-derived, TETRAS ADL-derived, and quality of life measures after washout","[2]; Part B, Day 70, after a 1-week washout period",returned to near pre-dose baseline levels
